For one assay, the system named is CCRF-CEM. Kind of assay: Concentration required for antiviral activity using infected CEM cells. The assay is classed as functional, cell-based. Particulars: Homo sapiens.
The target in assay [1] is Human immunodeficiency virus type 1 protease (Human immunodeficiency virus 1, UniProt Q72874). Kind of assay: Concentration required for in vitro inhibition of HIV-1 protease.

Turning to `Cc1ccc(C[C@@H](O)[C@H](Cc2ccccc2)NC(=O)[C@H](CC(N)=O)NC(=O)c2ccc3ccccc3n2)c(C(=O)NC(C)(C)C)c1`, in the assay on CCRF-CEM, half-maximal inhibition (IC50) required 20 nM. This lies in the double-digit nanomolar range.

Turning to `Cc1cccc(C[C@@H](O)[C@H](Cc2ccccc2)NC(=O)[C@H](CC(N)=O)NC(=O)c2ccc3ccccc3n2)c1C(=O)NC(C)(C)C`, the IC50 – broadly, the midpoint of a concentration-inhibition curve – was 28 nM in assay [1] and 920 nM with CCRF-CEM. The corresponding values for `CC(C)(C)NC(=O)c1cc2ccccc2cc1C[C@@H](O)[C@H](Cc1ccccc1)NC(=O)[C@H](CC(N)=O)NC(=O)c1ccc2ccccc2n1` are 149 nM and 980 nM. The corresponding values for `CC(C)(C)NC(=O)c1c(C[C@@H](O)[C@H](Cc2ccccc2)NC(=O)[C@H](CC(N)=O)NC(=O)c2ccc3ccccc3n2)ccc2ccccc12` are 3.5 nM and 190 nM. The corresponding values for `Cc1ccc(C(=O)NC(C)(C)C)c(C[C@@H](O)[C@H](Cc2ccccc2)NC(=O)[C@H](CC(N)=O)NC(=O)c2ccc3ccccc3n2)c1` are 2.2 nM and 610 nM.
